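The compound was tested at five concentrations on cells cultured in 96-well plates, with a 48-hour exposure period. GI50: concentration for 50% inhibition of growth. The concentration for full growth arrest is given as TGI.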
What was measured:
Assay in all cases: DTP human tumour cell line panel, 48 h
IGROV1 ovarian = system: IGROV1 ovarian
UACC-62 melanoma = system: UACC-62 melanoma
K-562 leukemia = system: K-562 leukemia
MOLT-4 leukemia = system: MOLT-4 leukemia
UACC-257 melanoma = system: UACC-257 melanoma
BT-549 breast = system: BT-549 breast
NCI/ADR-RES ovarian = system: NCI/ADR-RES ovarian
SR leukemia = system: SR leukemia
ACHN renal = system: ACHN renal
NCI-H226 lung = system: NCI-H226 lung
T-47D breast = system: T-47D breast
HCC-2998 colon = system: HCC-2998 colon
SK-MEL-5 melanoma = system: SK-MEL-5 melanoma
SF-295 CNS = system: SF-295 CNS
MDA-MB-231 breast = system: MDA-MB-231 breast
786-0 renal = system: 786-0 renal
SNB-19 CNS = system: SNB-19 CNS
HS 578T breast = system: HS 578T breast
NCI-H23 lung = system: NCI-H23 lung
OVCAR-8 ovarian = system: OVCAR-8 ovarian
SN12C renal = system: SN12C renal
MALME-3M melanoma = system: MALME-3M melanoma
TK-10 renal = system: TK-10 renal
HL-60(TB) leukemia = system: HL-60(TB) leukemia
SF-539 CNS = system: SF-539 CNS
EKVX NSCLC = system: EKVX NSCLC
RXF 393 renal = system: RXF 393 renal
HCT-116 colon = system: HCT-116 colon
CAKI-1 renal = system: CAKI-1 renal
HOP-62 NSCLC = system: HOP-62 NSCLC
SK-OV-3 ovarian = system: SK-OV-3 ovarian
SNB-75 CNS = system: SNB-75 CNS
HOP-92 NSCLC = system: HOP-92 NSCLC
OVCAR-5 ovarian = system: OVCAR-5 ovarian
NCI-H522 lung = system: NCI-H522 lung
A498 renal = system: A498 renal
SK-MEL-2 melanoma = system: SK-MEL-2 melanoma
SF-268 CNS = system: SF-268 CNS

O=C(/C=C/c1cn(-c2ccccc2)nc1-c1ccc([N+](=O)[O-])cc1)c1ccc(Cl)cc1
GI50 (IGROV1 ovarian): 3.54 µM
TGI (IGROV1 ovarian): > 100 µM
GI50 (UACC-62 melanoma): 6.01 µM
TGI (UACC-62 melanoma): > 100 µM
GI50 (K-562 leukemia): 0.0883 µM
TGI (K-562 leukemia): 2.73 µM
GI50 (MOLT-4 leukemia): 1.27 µM
TGI (MOLT-4 leukemia): > 100 µM
GI50 (UACC-257 melanoma): > 100 µM
TGI (UACC-257 melanoma): > 100 µM
GI50 (BT-549 breast): 3.13 µM
TGI (BT-549 breast): > 32.1 µM
GI50 (NCI/ADR-RES ovarian): 3.86 µM
TGI (NCI/ADR-RES ovarian): > 100 µM
GI50 (SR leukemia): 2.76 µM
TGI (SR leukemia): > 100 µM
GI50 (ACHN renal): 3.64 µM
TGI (ACHN renal): > 43.6 µM
TGI (NCI-H226 lung): > 100 µM
GI50 (T-47D breast): 1.22 µM
TGI (T-47D breast): > 100 µM
GI50 (HCC-2998 colon): > 100 µM
TGI (HCC-2998 colon): > 100 µM
TGI (SK-MEL-5 melanoma): > 100 µM
GI50 (SF-295 CNS): 2.68 µM
TGI (SF-295 CNS): 12.3 µM
GI50 (MDA-MB-231 breast): 2.9 µM
TGI (MDA-MB-231 breast): > 100 µM
GI50 (786-0 renal): 3.94 µM
TGI (786-0 renal): 55.3 µM
GI50 (SNB-19 CNS): 4.12 µM
TGI (SNB-19 CNS): 27 µM
GI50 (HS 578T breast): 1.92 µM
TGI (HS 578T breast): 5.64 µM
GI50 (NCI-H23 lung): 3.67 µM
TGI (NCI-H23 lung): > 100 µM
GI50 (OVCAR-8 ovarian): 6.33 µM
TGI (OVCAR-8 ovarian): > 100 µM
GI50 (SN12C renal): 4.54 µM
TGI (SN12C renal): > 100 µM
GI50 (MALME-3M melanoma): 2.44 µM
TGI (MALME-3M melanoma): 6.59 µM
GI50 (TK-10 renal): 3.09 µM
TGI (TK-10 renal): 13.4 µM
TGI (HL-60(TB) leukemia): > 100 µM
GI50 (SF-539 CNS): 2.19 µM
GI50 (EKVX NSCLC): > 22.3 µM
TGI (EKVX NSCLC): > 100 µM
GI50 (RXF 393 renal): 1.92 µM
TGI (RXF 393 renal): 5.19 µM
GI50 (HCT-116 colon): 2.42 µM
TGI (HCT-116 colon): > 100 µM
GI50 (CAKI-1 renal): > 21.3 µM
TGI (CAKI-1 renal): > 100 µM
GI50 (HOP-62 NSCLC): 14.9 µM
TGI (HOP-62 NSCLC): 51.1 µM
GI50 (SK-OV-3 ovarian): 7.83 µM
TGI (SK-OV-3 ovarian): > 77.3 µM
GI50 (SNB-75 CNS): 1.65 µM
TGI (SNB-75 CNS): 4.84 µM
GI50 (HOP-92 NSCLC): 3.36 µM
TGI (HOP-92 NSCLC): 70.1 µM
GI50 (OVCAR-5 ovarian): > 100 µM
TGI (OVCAR-5 ovarian): > 100 µM
GI50 (NCI-H522 lung): 6.41 µM
TGI (NCI-H522 lung): > 100 µM
GI50 (A498 renal): 4.99 µM
TGI (A498 renal): > 100 µM
GI50 (SK-MEL-2 melanoma): 5.03 µM
TGI (SK-MEL-2 melanoma): 23 µM
GI50 (SF-268 CNS): 2.78 µM
TGI (SF-268 CNS): > 100 µM

Reference: PubChem BioAssay (NCI)
